Results reported in paper PMC7408493, “Implication of Opioid Receptors in the Antihypertensive Effect of a Novel Chicken Foot-Derived Peptide” (Biomolecules, 2020).
Ends that are not written are not given here.

Assays:
Format in all cases: in vitro ADME
[1] = tested on: trypsin, α-chymotrypsin, porcine pancreatic lipase and colipase; assay: In vitro simulated duodenal digestion (D60); settings: 60 min simulated duodenal digestion, pH 7, 37 °C
Experimental: For the in vitro simulated peptide GI digestion, a two-stage hydrolysis process was carried out according to Martos et al.. […] was dissolved in simulated gastric fluid (35 mM NaCl at pH 2 for 15 min) and posteriorly subjected to digestion by porcine pepsin (E.C. 3.4.23.1, 3440 units/mg) at an enzyme/substrate ratio of 1: 20 w/w at 37 °C for 60 min. Gastric digestion with pepsin was stopped by adding 1 M NaHCO3 and pH was adjusted to 7.0 with NaOH 1 M (final protein concentration of 5 mg/mL). Aliquots of this gastric digest were collected (G60) and stored at −20 °C until analysis. Duodenal digestions were performed by using, as the starting material, the obtained gastric digests, with the addition of 1 M CaCl2, 0.25 M bis-Tris pH 6.5, 0.25 M bis-Tris pH 6.5, and a 0.125 M bile salts mixture containing equimolar quantities of sodium taurocholate and glycodeoxycholic acid. […]
Samples obtained from in vitro peptide simulated digestion and Caco-2 monolayers were diluted 10 times with water (0.1% FA) and centrifuged (15,000 rpm, 15 min, 4 °C). Supernatants were directly analyzed by UHPLC-HRMS to avoid the loss of polar peptide fragments. […]

[2] = biological target: T1, porcine pepsin (Sus scrofa, UniProt P00791); assay: In vitro simulated gastric digestion (G60); settings: 60 min
T1 construct: purchased Sigma-Aldrich (Madrid, Spain)
Experimental: For the in vitro simulated peptide GI digestion, a two-stage hydrolysis process was carried out according to Martos et al.. […] was dissolved in simulated gastric fluid (35 mM NaCl at pH 2 for 15 min) and posteriorly subjected to digestion by porcine pepsin (E.C. 3.4.23.1, 3440 units/mg) at an enzyme/substrate ratio of 1: 20 w/w at 37 °C for 60 min. Gastric digestion with pepsin was stopped by adding 1 M NaHCO3 and pH was adjusted to 7.0 with NaOH 1 M (final protein concentration of 5 mg/mL). Aliquots of this gastric digest were collected (G60) and stored at −20 °C until analysis. Duodenal digestions were performed by using, as the starting material, the obtained gastric digests, with the addition of 1 M CaCl2, 0.25 M bis-Tris pH 6.5, 0.25 M bis-Tris pH 6.5, and a 0.125 M bile salts mixture containing equimolar quantities of sodium taurocholate and glycodeoxycholic acid. Posteriorly, the duodenal enzymes trypsin (EC 232-650-8, 10100 BAEE units/mg protein), α-chymotrypsin (EC 232-671-2; 55 units/mg protein), porcine pancreatic lipase (EC 232-619-9) and colipase (EC 259-490-1), prepared in 35 mM NaCl adjusted to pH 7, were added to the solution. Duodenal digestion was carried out at pH 7, 37 °C during 60 (D60). Then, enzymes were inactivated by heating at 95 °C for 10 min in a water bath, followed by cooling to room temperature. Triplicates of aliquots at each time point were collected and stored at −20 °C until analysis.
(§1) Samples obtained from in vitro peptide simulated digestion and Caco-2 monolayers were diluted 10 times with water (0.1% FA) and centrifuged (15,000 rpm, 15 min, 4 °C). Supernatants were directly analyzed by UHPLC-HRMS to avoid the loss of polar peptide fragments. Extensive clean-up or pre-concentration procedures were not necessary due to the high concentration of peptide and low matrix complexity than plasma samples.
(§2) The obtained purified solutions from plasma and peptide digests G60 and D60 and from AP and BL chambers in Caco-2 experiment were analyzed using a UHPLC 1290 Infinity II Series coupled to a QqQ 6490 Series (Agilent Technologies, Santa Clara, CA, USA) for tandem mass experiments or a qTOF 6550 Series (Agilent Technologies) for high-resolution mass spectrometry experiments. Chromatographic separation of peptide or their fragments were performed using a Kinetex 2.6 µm EVO C18 column (150 × 2.1 mm, […]) from (Phenomenex, Torrance, USA) as stationary phase and water containing 0.1% formic acid (solvent A) and acetonitrile (solvent B) as mobile phase. The separation was performed in gradient elution as follows: isocratic; 0–0.5 min, 2 % B; 0.5–1 min, 2–6% B; 1–5 min, 6–15% B; 5–6 min, 15–35% B; 6–10 min, 35–98% B; 10–12 min, 98% B isocratic; 12–12.10, 98–2% B. For all runs, 10 μL of the sample (4 °C) was injected, and the flow rate was 0.350 mL/min and the column temperature was 25 °C.
(§3) For in vitro simulated digestion experiments and Caco-2 monolayer samples, qTOF instrument was used to investigate the presence of unknown peptide fragments and previously in silico predicted peptide fragments by means of its accurate mass. Peptide and its fragments were semi-quantified using the chromatographic peak area observed in the extracted ion chromatograms using a 20 ppm mass window.

[3] = tested on: Caco-2 cell monolayers; assay: Transepithelial transport through Caco-2 monolayer; settings: 1 h, 37 °C, UHPLC-HRMS
Experimental: Caco-2 cells were obtained from Sigma-Aldrich and were grown Dulbecco’s modified minimum essential medium (DMEM), supplemented with 20% fetal bovine serum (FBS), […] L-glutamine, 100 U/mL penicillin and 100 μg/mL streptomycin at 37 °C in and 5% CO2. Cells were seeded onto Transwell inserts permeable membrane support (0.4 µm pore, 24 mm diameter, 4.7 cm^2 grown surface from Merck Co., Bedford, MA, USA) placed in six-well plates. The seeding density was 12,000 cell/cm^2. The medium was replaced every 2–3 days and cells were growing for 21 days. On the 21st day of the procedure, the integrity of the Caco-2 monolayer was assessed by the measurement of transepithelial electrical resistance (TEER) using a Millicell ERS-2 voltammeter (EMD Millipore, Darmstadt, Germany) selecting the ones with TEER values higher than 200 Ω/cm^2.
For the transport study, Caco-2 cells, maintained in DMEM, were gently rinsed with Hank’s balanced salt solution (HBSS) and equilibrated for 20 min at 37 °C prior to the transport study. Then, it was evaluated the transepithelial transport of the peptide […] (1 mM) dissolved in HBSS and the digests obtained in the in vitro simulated digestion (G60 and D60). […] or the peptide digests G60 and D60 were added to the apical (AP) chamber and were incubated for 1 h at 37 °C. After this time, triplicates of the AP chamber content and the basolateral (BL) chamber content were taken and stored at −80 °C until ultra-high performance liquid chromatography-high resolution mass spectrometry (UHPLC-HRMS) analyses.
as §1, §2, §3

T1 sequence (P00791 60-385): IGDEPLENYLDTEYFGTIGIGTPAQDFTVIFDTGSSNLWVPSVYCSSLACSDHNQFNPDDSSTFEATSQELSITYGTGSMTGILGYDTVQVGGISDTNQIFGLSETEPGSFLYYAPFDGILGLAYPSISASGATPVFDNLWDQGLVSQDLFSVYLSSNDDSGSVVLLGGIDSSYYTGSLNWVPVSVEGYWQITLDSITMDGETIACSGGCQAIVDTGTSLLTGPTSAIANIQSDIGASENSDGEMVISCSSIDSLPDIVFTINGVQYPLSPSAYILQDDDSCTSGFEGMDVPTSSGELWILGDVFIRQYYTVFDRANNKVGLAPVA

Sequence: AVFQHNCQE
- Fate after duodenal digestion [1]: mainly hydrolyzed into free amino acid residues
- Resistance to gastric digestion ([2]; pepsin, pH 2, 37 °C, most intense signal in G60 was the native peptide): resistant to gastric digestion
- Area G60 (chromatographic peak area) ([2]; simulated gastric fluid 35 mM NaCl pH 2, porcine pepsin enzyme/substrate 1:20 w/w, 37 °C, UHPLC-HRMS extracted ion chromatogram, 20 ppm window, semi-quantified, triplicate aliquots): 5,236,186
- G60 % Transport ([3]; 21 days, TEER > 200 Ω/cm^2, gastric digest G60 added to apical chamber, AP to BL, HBSS, content in basolateral chamber in comparison to apical chamber, triplicates): 0.25%
- Absorption through the intestinal monolayer ([3]; native peptide 1 mM in HBSS or digests in apical chamber): not absorbed through the intestinal monolayer
